From patent US20240122829A1, “HAIR COMPOSITIONS, HAIR FORMULATIONS, PROCESSES OF PRODUCTION THEREOF, USES AND METHODS OF HAIR TREATMENT” (CHEMYUNION LTDA., priority 2021, published 2024)

Test: Repairing effect: maximum tension of hair fibers after 3 discoloration processes, composition applied in a leave-in base
Details: synergy test, after 3 discolorations; compositions at 5% in leave-in base; FIG. 11
Experimental: To evaluate the effectiveness of the repairing effect, tests of maximum tension were performed after 2 or 3 discoloration processes in hair samples, composed by a naïve control group (without discoloration process), a discolored control group, a group discolored with application of the Benchmark 1 composition and a group containing the compositions of the present patent application after two or three discoloration processes, the composition being applied in a leave-in base containing 1% or 5% of the composition, this composition being the Base A or Base B, while Benchmark consisted of a ready-to-use cosmetic base (Benchmark 2 or Benchmark 3).
The leave-in base comprises: 3%-5% cetostearyl alcohol 30/70; 0.8-2.5% cetyl alcohol 0.8-2.5%; 0.05%-0.1% disodium EDTA; 0.8%-2.5% CCTA cetyl trimethyl ammonium chloride; 0.25%-1% preservatives and anti-microbial agents and water q.s. […]
After the discoloration process, a standardized amount of Leave-in was applied to the strands with or without (control) 1% or 5% of the hair composition of the present patent application on damp hair, and this composition may be the Base A or Base B or the actives making up Base B, while the benchmark consisted of a ready-to-use cosmetic base (Benchmark 2 or Benchmark 3). […]

**Q.** For `N=C(N)NCCC[C@H](N)C(=O)O` [arginine], which “increase in resistance in relation to the discolored strand” value is on record?
**A.** 3.9%
